Tests used:
Format in all cases: functional
KM12 = test: Cytotoxicity against human KM12 cells assessed as cell growth at 0.1 uM after 48 hrs by SRB assay relative to control; settings: KM12, 48 h, read-out: Activity
HCT-15 [1] = test: Cytotoxicity against human HCT15 cells assessed as cell growth at 0.01 uM after 48 hrs by SRB assay relative to control; settings: HCT-15, 48 h, read-out: Activity
TK-10 = test: Cytotoxicity against human TK10 cells after 48 hrs by SRB assay; settings: TK-10, 48 h; for CC50: read-out: LC50 (the source's name)
SF-295 [2] = test: Cytotoxicity against human SF295 cells assessed as cell growth at 0.01 uM after 48 hrs by SRB assay relative to control; settings: SF-295, 48 h, read-out: Activity
MCF7 [3] = test: Cytotoxicity against human MCF7 cells assessed as cell growth at 1 uM after 48 hrs by SRB assay relative to control; settings: MCF7, 48 h, read-out: Activity
Malme-3M = test: Cytotoxicity against human MALME-3M cells after 48 hrs by SRB assay
MOLT-4 = test: Cytotoxicity against human MOLT4 cells after 48 hrs by SRB assay; settings: MOLT-4, 48 h; for CC50: read-out: LC50 (the source's name)
RXF 393 [4] = test: Cytotoxicity against human RXF393 cells after 48 hrs by SRB assay; settings: RXF 393, 48 h
OVCAR-5 [5] = test: Cytotoxicity against human OVCAR5 cells assessed as cell growth at 0.1 uM after 48 hrs by SRB assay relative to control; settings: OVCAR-5, 48 h, read-out: Activity
SF-268 = test: Cytotoxicity against human SF268 cells assessed as cell growth at 0.1 uM after 48 hrs by SRB assay relative to control; settings: SF-268, 48 h, read-out: Activity
OVCAR-3 = test: Cytotoxicity against human OVCAR3 cells assessed as cell growth at 1 uM after 48 hrs by SRB assay relative to control; settings: OVCAR-3, 48 h, read-out: Activity
SR = test: Cytotoxicity against human SR cells after 48 hrs by SRB assay
MDA-MB-231 = test: Cytotoxicity against human MDA-MB-231 cells assessed as cell growth at 100 uM after 48 hrs by SRB assay relative to control; settings: MDA-MB-231, 48 h, read-out: Activity
SF-295 [6] = test: Cytotoxicity against human SF295 cells assessed as cell growth at 0.1 uM after 48 hrs by SRB assay relative to control; settings: SF-295, 48 h, read-out: Activity
RXF 393 [7] = test: Cytotoxicity against human RXF393 cells assessed as cell growth at 0.01 uM after 48 hrs by SRB assay relative to control; settings: RXF 393, 48 h, read-out: Activity
M14 = test: Cytotoxicity against human M14 cells assessed as cell growth at 1 uM after 48 hrs by SRB assay relative to control; settings: M14, 48 h, read-out: Activity
SN12C = test: Cytotoxicity against human SN12C cells assessed as cell growth at 1 uM after 48 hrs by SRB assay relative to control; settings: read-out: Activity
NCI-H226 = test: Cytotoxicity against human NCI-H226 cells assessed as cell growth at 0.1 uM after 48 hrs by SRB assay relative to control; settings: NCI-H226, 48 h, read-out: Activity
MDA-MB-468 = test: Cytotoxicity against human MDA-MB-468 cells assessed as cell growth at 1 uM after 48 hrs by SRB assay relative to control; settings: MDA-MB-468, 48 h, read-out: Activity
SK-OV-3 = test: Cytotoxicity against human SKOV3 cells after 48 hrs by SRB assay; settings: SK-OV-3, 48 h
T47D [8] = test: Cytotoxicity against human T47D cells assessed as cell growth at 0.01 uM after 48 hrs by SRB assay relative to control; settings: read-out: Activity
SK-MEL-28 [9] = test: Cytotoxicity against human SK-MEL-28 cells assessed as cell growth at 100 uM after 48 hrs by SRB assay relative to control; settings: SK-MEL-28, 48 h, read-out: Activity
HOP-62 = test: Cytotoxicity against human HOP62 cells assessed as cell growth at 0.01 uM after 48 hrs by SRB assay relative to control; settings: HOP-62, 48 h, read-out: Activity
HCT-15 [10] = test: Cytotoxicity against human HCT15 cells assessed as cell growth at 0.1 uM after 48 hrs by SRB assay relative to control; settings: HCT-15, 48 h, read-out: Activity
NCI-H522 = test: Cytotoxicity against human NCI-H522 cells assessed as cell growth at 0.1 uM after 48 hrs by SRB assay relative to control; settings: NCI-H522, 48 h, read-out: Activity
T47D [11] = test: Cytotoxicity against human T47D cells after 48 hrs by SRB assay
SW-620 = test: Cytotoxicity against human SW620 cells assessed as cell growth at 100 uM after 48 hrs by SRB assay relative to control; settings: SW-620, 48 h, read-out: Activity
UACC-62 = test: Cytotoxicity against human UACC62 cells assessed as cell growth at 0.01 uM after 48 hrs by SRB assay relative to control; settings: UACC-62, 48 h, read-out: Activity
MCF7 [12] = test: Cytotoxicity against human MCF7 cells assessed as cell growth at 0.1 uM after 48 hrs by SRB assay relative to control; settings: MCF7, 48 h, read-out: Activity
NCI-H460 = test: Cytotoxicity against human NCI-H460 cells after 48 hrs by SRB assay; settings: NCI-H460, 48 h
SK-MEL-28 [13] = test: Cytotoxicity against human SK-MEL-28 cells assessed as cell growth at 0.1 uM after 48 hrs by SRB assay relative to control; settings: SK-MEL-28, 48 h, read-out: Activity
786-0 = test: Cytotoxicity against human 786-O cells assessed as cell growth at 1 uM after 48 hrs by SRB assay relative to control; settings: 786-0, 48 h, read-out: Activity
CAKI-1 = test: Cytotoxicity against human Caki1 cells assessed as cell growth at 0.01 uM after 48 hrs by SRB assay relative to control; settings: CAKI-1, 48 h, read-out: Activity
COLO 205 = test: Cytotoxicity against human COLO205 cells after 48 hrs by SRB assay; settings: COLO 205, 48 h
HL-60(TB) = test: Cytotoxicity against human HL-60(TB) cells after 48 hrs by SRB assay; settings: HL-60, 48 h
OVCAR-5 [14] = test: Cytotoxicity against human OVCAR5 cells assessed as cell growth at 100 uM after 48 hrs by SRB assay relative to control; settings: OVCAR-5, 48 h, read-out: Activity

`N#CCCCCCn1cc(C2=C(c3cn(CCCCCC#N)c4ccccc34)C(=O)N(O)C2=O)c2ccccc21` gave a growth at 0.1 µM (KM12) of 97%, a growth at 0.01 µM (HCT-15 [1]) of 93% and a GI50 (TK-10) of 22.2 µM. The TGI (TK-10) was greater than 100 µM, the CC50 (TK-10) was greater than 100 µM and the growth at 0.01 µM (SF-295 [2]) was 98%. The growth at 1 µM (MCF7 [3]) was 95%, the GI50 (Malme-3M) was 12 µM and the LC50 (concentration killing 50% of cells) (Malme-3M) was greater than 100 µM. The TGI (Malme-3M) was 62.8 µM, the GI50 (MOLT-4) was 2.93 µM and the TGI (MOLT-4) was greater than 100 µM. For the same compound, the CC50 (MOLT-4) was greater than 100 µM, the GI50 (RXF 393 [4]) was 3.15 µM and the LC50 (RXF 393 [4]) was greater than 100 µM. It also gave a TGI (RXF 393 [4]) of 12.2 µM, a growth at 0.1 µM (OVCAR-5 [5]) of 89% and a growth at 0.1 µM (SF-268) of 95%. The growth at 1 µM (OVCAR-3) was 101%, the GI50 (SR) was 3.55 µM and the LC50 (SR) was greater than 100 µM. It also gave a TGI (SR) of 9.48 µM, a growth at 100 µM (MDA-MB-231) of -7% and a growth at 0.1 µM (SF-295 [6]) of 91%. It also gave a growth at 0.01 µM (RXF 393 [7]) of 96%, a growth at 1 µM (M14) of 89% and a growth at 1 µM (SN12C) of 93%. The growth at 0.1 µM (NCI-H226) was 96%, the growth at 1 µM (MDA-MB-468) was 106% and the GI50 (SK-OV-3) was 7.78 µM. For the same compound, the LC50 (SK-OV-3) was greater than 100 µM, the TGI (SK-OV-3) was greater than 100 µM and the growth at 0.01 µM (T47D [8]) was 99%. It also gave a growth at 100 µM (SK-MEL-28 [9]) of 4%, a growth at 0.01 µM (HOP-62) of 94% and a growth at 0.1 µM (HCT-15 [10]) of 93%. For the same compound, the growth at 0.1 µM (NCI-H522) was 86%, the GI50 (T47D [11]) was 4.15 µM and the LC50 (T47D [11]) was greater than 100 µM. For the same compound, the TGI (T47D [11]) was 60.5 µM, the growth at 100 µM (SW-620) was 7% and the growth at 0.01 µM (UACC-62) was 95%. It also gave a growth at 0.1 µM (MCF7 [12]) of 85%, a GI50 (NCI-H460) of 5.05 µM and an LC50 (NCI-H460) greater than 100 µM. For the same compound, the TGI (NCI-H460) was 33 µM, the growth at 0.1 µM (SK-MEL-28 [13]) was 102% and the growth at 1 µM (786-0) was 100%. The growth at 0.01 µM (CAKI-1) was 98%, the GI50 (COLO 205) was 17.7 µM and the LC50 (COLO 205) was greater than 100 µM. It also gave a TGI (COLO 205) of 58.7 µM, a GI50 (HL-60(TB)) of 2.54 µM and an LC50 (HL-60(TB)) greater than 100 µM. The TGI (HL-60(TB)) was 6.44 µM and the growth at 100 µM (OVCAR-5 [14]) was 18%.
For `Cn1cc(C2=C(c3cn(C)c4ncccc34)C(=O)NC2=O)c2ccccc21`, the growth at 0.1 µM (KM12) was 102%, the growth at 0.01 µM (HCT-15 [1]) was 100% and the GI50 (TK-10) was 4.82 µM. The TGI (TK-10) was 43.9 µM, the CC50 (TK-10) was greater than 100 µM and the growth at 0.01 µM (SF-295 [2]) was 98%. It also gave a growth at 1 µM (MCF7 [3]) of 73%, a GI50 (Malme-3M) of 5.47 µM and a TGI (Malme-3M) of 52.4 µM. For the same compound, the GI50 (MOLT-4) was 3.53 µM, the TGI (MOLT-4) was 17.7 µM and the CC50 (MOLT-4) was greater than 100 µM. For the same compound, the GI50 (RXF 393 [4]) was 1.95 µM, the TGI (RXF 393 [4]) was 5.32 µM and the growth at 0.1 µM (OVCAR-5 [5]) was 102%. The growth at 0.1 µM (SF-268) was 102%, the growth at 1 µM (OVCAR-3) was 98% and the GI50 (SR) was 1.04 µM. For the same compound, the TGI (SR) was 18.4 µM, the growth at 100 µM (MDA-MB-231) was -25% and the growth at 0.1 µM (SF-295 [6]) was 93%. For the same compound, the growth at 0.01 µM (RXF 393 [7]) was 98%, the growth at 1 µM (M14) was 110% and the growth at 1 µM (SN12C) was 76%. For the same compound, the growth at 0.1 µM (NCI-H226) was 91%, the growth at 1 µM (MDA-MB-468) was 78% and the GI50 (SK-OV-3) was 2.09 µM. For the same compound, the TGI (SK-OV-3) was 8 µM, the growth at 0.01 µM (T47D [8]) was 89% and the growth at 100 µM (SK-MEL-28 [9]) was -24%. It also gave a growth at 0.01 µM (HOP-62) of 110%, a growth at 0.1 µM (HCT-15 [10]) of 103% and a growth at 0.1 µM (NCI-H522) of 98%. For the same compound, the GI50 (T47D [11]) was 2.37 µM, the TGI (T47D [11]) was 30.3 µM and the growth at 100 µM (SW-620) was -19%. It also gave a growth at 0.01 µM (UACC-62) of 97%, a growth at 0.1 µM (MCF7 [12]) of 87% and a GI50 (NCI-H460) of 3.8 µM. It also gave a TGI (NCI-H460) of 22 µM, a growth at 0.1 µM (SK-MEL-28 [13]) of 95% and a growth at 1 µM (786-0) of 98%. It also gave a growth at 0.01 µM (CAKI-1) of 97%, a GI50 (COLO 205) of 1.69 µM and a TGI (COLO 205) of 3.71 µM. It also gave a GI50 (HL-60(TB)) of 4.05 µM, a TGI (HL-60(TB)) of 17.9 µM and a growth at 100 µM (OVCAR-5 [14]) of -15%.
